The test system of assay [1] is Helicobacter pylori. As to the kind of experiment: Protection against Helicobacter pylori ATCC 43504 infected (MOI 50:1) in human GES1 cell injury model assessed as viable cells at 50 uM pre-treated for 2 hrs followed by bacterial infection measured after 6 hrs by Annexin/V-FITC staining based flow cytometry analysis (reference value: 81.14%). In kind it is functional. The note with it: time 8 hrs. (In general: Flow cytometry measures light scatter and fluorescence of single cells or particles in a stream.)

Assay [2] concerns Helicobacter pylori. As to the kind of experiment: Protection against Helicobacter pylori ATCC 43504 infected (MOI 50:1) in human GES1 cell injury model assessed as late apoptotic cells at 50 uM pre-treated for 2 hrs followed by bacterial infection measured after 6 hrs by Annexin/V-FITC staining based flow cytometry analysis (reference value: 2.85%). Format: functional. As to conditions: time 8 hrs.

The subject of assay [3] is Helicobacter pylori. As to the kind of experiment: In vivo protection against Helicobacter pylori ATCC 43504 infected in BALB/c mouse gastric mucosa model assessed as reduction in hyperplasia at 25 mg/kg administered once a day for 2 weeks by HE staining based analysis. In kind it is functional, organism-based.
Assay [4] deals with Helicobacter pylori. As to the kind of experiment: In vivo protection against Helicobacter pylori ATCC 43504 infected in BALB/c mouse gastric mucosa model assessed as appearance of intact sub-mucosa at high dose administered once a day for 2 weeks by HE staining based analysis. In kind it is functional, organism-based.
Assay [5] deals with Helicobacter pylori. As to the kind of experiment: Protection against Helicobacter pylori ATCC 43504 infected (MOI 200:1) in human GES1 cell injury model assessed as viable cells at 50 uM pre-treated for 2 hrs followed by bacterial infection measured after 6 hrs by Annexin/V-FITC staining based flow cytometry analysis (reference value: 57.87%). The note with it: time 8 hrs. Format: functional.

The source made the active and inactive calls. The rule behind the calls is not given here.

Results on 1 compound are retold here after ChEMBL document CHEMBL6103589, “Synthesis and evaluation of novel ebselen derivatives as urease inhibitors for combating Helicobacter pylori infections” (Eur J Med Chem, 2025).

On to `O=C(Oc1n[se]c2ccccc12)c1cccc(F)c1`, for which the Activity amounted to 97.06% in the assay with Helicobacter pylori [1], 0.02% in the assay with Helicobacter pylori [2] and 94.61% with Helicobacter pylori [5]. Moreover, the result with Helicobacter pylori [3] and with Helicobacter pylori [4] was Active.
